Laboratory results: US12269826B1, “7H-pyrido[4′,3′:4,5]pyrrolo[2,3-c][1,7]naphthyridine compounds as CK2 inhibitors” (KING FAISAL UNIVERSITY, priority 2023, dated 2025)
pIC50: −log10 of the molar value.

Tests used:
PC3 (prostate) = assay: In vitro cytotoxic activity (MTT) assay, PC3; assay type: cell-based; settings: Homo sapiens; cells exposed for 96 hours; 50% inhibition of cell proliferation; read-out: Cytotoxicity activity IC50, PC3 (prostate)
Experimental: (§1) Compounds 1-16 were screened for their in vitro cytotoxic activity utilizing a 3-(4,5-dimethyl-thiazol-2-yl)-2,5-diphenyltetrazolium bromide (MTT) assay against selected cancer human cell lines consisting of PC3 (prostate), HCT116 (colon), A375 (melanoma), H1299 (lung), MIAPaCa-2 (pancreas), HL60 (leukemia), MCF7 (breast), MDA-MB-231 (breast) (T. Mosmann, J. Immunol. Meth., 1983, 65, 55-63). The cells were cultured at 37° C. in RMPI1640 medium supplemented with 10% fetal bovine serum, 50 IU/mL penicillin, and 50 μg/mL streptomycin in a 5% CO2 incubator. All cells were sub-cultured 3 times/week by trypsinisation. Viable cells were seeded and allowed to adhere for 12 h before a test drug was added in 96-well plates at an initial density of 1.0×10^5 cells/mL. Tumor cell lines were separately exposed to various concentrations of the tested compounds followed by incubation at a temperature of 37° C. during 96 hours inside a medium of fresh RMPI 1640. Cells were subsequently incubated at 37° C. using MTT at 0.5 mg/mL during 4 hours. After removal of supernatant, formazan crystals were dissolved in isopropanol and the optical density was measured at 570 nm. CX-4945 was used as a positive control.

HL60 (leukemia) = assay: In vitro cytotoxic activity (MTT) assay, HL60; assay type: cell-based; settings: Homo sapiens, HL-60; cells exposed for 96 hours; 50% inhibition of cell proliferation; read-out: Cytotoxicity activity IC50, HL60 (leukemia)
Experimental: as §1

MCF7 (breast) = assay: In vitro cytotoxic activity (MTT) assay, MCF7; assay type: cell-based; settings: Homo sapiens, cells exposed for 96 hours, 50% inhibition of cell proliferation, read-out: Cytotoxicity activity IC50, MCF7 (breast)
Experimental: as §1

A375 (melanoma) = assay: In vitro cytotoxic activity (MTT) assay, A375; assay type: cell-based; settings: Homo sapiens, A-375; cells exposed for 96 hours; 50% inhibition of cell proliferation; read-out: Cytotoxicity activity IC50, A375 (melanoma)
Experimental: as §1

[1] = molecular target: T1, recombinant human CK2 (RRββ-holoenzyme) (Homo sapiens, UniProt P68400); assay: CK2 Kinase Assay (33P-ATP, filter plate); assay type: biochemical; settings: final ATP concentration 15 μM; 10 min at 30° C.; read-out: protein kinase CK2 IC50
T1 construct: purchased Millipore
Experimental: CK2 Kinase Assay was conducted using the protocol as described in Pierre F. et al; J. Med. Chem. 2011, 54, 635-654. The tested compounds in aqueous solution were added at a volume of 10 μL to a reaction mixture comprising 10 μL of assay dilution buffer (ADB; 20 mM MOPS, pH 7.2, 25 mM β-glycerol phosphate, 5 mM EGTA, 1 mM sodium orthovanadate, and 1 mM dithiothreitol), 10 μL of substrate peptide (RRRDDDSDDD, dissolved in ADB at a concentration of 1 mM), 10 μL of recombinant human CK2 (RRββ-holoenzyme, 25 ng dissolved in ADB; Millipore). Reactions were initiated by the addition of 10 μL of ATP solution (90% 75 mMMgCl2, 75 µM ATP (final ATP concentration: 15 μM) dissolved in ADB; 10% [γ-33P] ATP (stock 1 mCi/100 μL; 3000 Ci/mmol (Perkin-Elmer) and maintained for 10 min at 30° C. The reactions were quenched with 100 μL of 0.75% phosphoric acid and then transferred to and filtered through a phosphor cellulose filter plate (Millipore). After washing each well five times with 0.75% phosphoric acid, the plate was dried under vacuum for 5 min and, following the addition of 15 μL of scintillation fluid to each well, the residual radioactivity was measured using a Wallac luminescence counter. The IC50 values were derived from eight concentrations of test inhibitors.

MIAPaCa-2 (pancreas) = assay: In vitro cytotoxic activity (MTT) assay, MIAPaCa-2; assay type: cell-based; settings: Homo sapiens, MIA PaCa-2; cells exposed for 96 hours; 50% inhibition of cell proliferation; read-out: Cytotoxicity activity IC50, MIAPaCa-2 (pancreas)
Experimental: as §1

MDA-MB-231 (breast) = assay: In vitro cytotoxic activity (MTT) assay, MDA-MB-231; assay type: cell-based; settings: Homo sapiens, cells exposed for 96 hours, 50% inhibition of cell proliferation, read-out: Cytotoxicity activity IC50, MDA-MB-231 (breast)
Experimental: as §1

HCT116 (colon) = assay: In vitro cytotoxic activity (MTT) assay, HCT116; assay type: cell-based; settings: Homo sapiens, HCT-116; cells exposed for 96 hours; 50% inhibition of cell proliferation; read-out: Cytotoxicity activity IC50, HCT116 (colon)
Experimental: as §1

H1299 (lung) = assay: In vitro cytotoxic activity (MTT) assay, H1299; assay type: cell-based; settings: Homo sapiens, NCI-H1299; cells exposed for 96 hours; 50% inhibition of cell proliferation; read-out: Cytotoxicity activity IC50, H1299 (lung)
Experimental: as §1

T1 sequence (P68400 whole entry): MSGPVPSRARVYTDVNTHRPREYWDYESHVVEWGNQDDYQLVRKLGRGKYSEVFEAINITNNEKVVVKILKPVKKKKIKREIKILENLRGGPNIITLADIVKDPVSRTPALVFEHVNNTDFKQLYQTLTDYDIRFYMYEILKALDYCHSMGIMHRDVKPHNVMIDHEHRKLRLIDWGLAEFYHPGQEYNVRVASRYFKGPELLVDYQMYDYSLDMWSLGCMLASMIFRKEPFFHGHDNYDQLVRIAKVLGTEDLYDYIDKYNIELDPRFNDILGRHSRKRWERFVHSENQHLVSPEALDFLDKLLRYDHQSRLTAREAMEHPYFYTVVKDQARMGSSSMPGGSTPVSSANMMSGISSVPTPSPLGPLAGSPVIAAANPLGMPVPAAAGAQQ
T1 sequence (P67870 whole entry partner): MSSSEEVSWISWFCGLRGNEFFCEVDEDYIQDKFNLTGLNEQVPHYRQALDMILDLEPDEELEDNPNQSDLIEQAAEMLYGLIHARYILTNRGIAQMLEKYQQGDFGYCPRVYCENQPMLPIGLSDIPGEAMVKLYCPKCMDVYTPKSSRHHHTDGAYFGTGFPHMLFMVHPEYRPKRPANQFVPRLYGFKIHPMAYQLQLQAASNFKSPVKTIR

## Clc1cccc(Nc2nc3cnccc3c3c2[nH]c2cnccc23)c1 [Compound 1, N-(3-chlorophenyl)-7H-pyrido[4′,3′:4,5]pyrrolo[2,3-c][1,7]naphthyridin-6-amine]
PC3 (prostate)
  pIC50: 6.05
HL60 (leukemia)
  pIC50: 5.44
MCF7 (breast)
  pIC50: 5.31
A375 (melanoma)
  pIC50: 5.38
[1]
  pIC50: 6.53
MIAPaCa-2 (pancreas)
  pIC50: 5.55
MDA-MB-231 (breast)
  pIC50: 5.39
HCT116 (colon)
  pIC50: 5.96
H1299 (lung)
  pIC50: 5.80
